Literature values in patent US20090259054A1, “Methods and Compositions for the Treatment of Angiogenesis and Macular Degeneration” (The Texas A&M University System, priority 2008, published 2009).

Conditions: 4 mg/kg GA, 1 treatment every two days; cited from earlier work

In the case of `CC(C)=CCC[C@]1(C)C=Cc2c(O)c3c(c(CC=C(C)C)c2O1)O[C@]12C(=C[C@@H]4C[C@H]1C(C)(C)O[C@@]2(C/C=C(/C)C(=O)O)C4=O)C3=O` [GA, gambogic acid], the Toxicity of dosage is listed as “non-toxic dosage”.
